Assay results reported in patent US9273101B2, “Functionalized biomaterials for tissue regeneration” (Nanomed3D S.R.L., priority 2011, dated 2016).
Entries after “also recorded” stand apart in the source; their conditions may differ.

Assays:
[1] = test system: NSCs cultured in suspension; test: Phage biopanning (Ph.D.-7 library) against NSCs in suspension; type: binding, murine; conditions: after three rounds of biopanning; for %, eluted phage clones / Frequency, eluted phage clones: membrane bound phages (MP); for %, internalized phage clones / Frequency, internalized phage clones: internalized clones (IP)
Method: (§1) Two days prior cell seeding murine NSCs were mechanically dissociated in order to seed the maximum percentage of stem cells.
(§2) The Ph.D.-7 phage library was used (New England Biolabs), composed of phage clones with random 7-mer peptides fused to the N-terminal of PIII, a minor coat protein of M13 phage.
(§3) Before biopanning experiments against NSCs in adhesion, the phage library was incubated in a Laminin-coated tissue culture dish in order to remove phages with affinity to the Laminin coated plastic surface (negative selection). Mouse Laminin (10 mL at 25 μg/ml concentration) (Roche) was incubated overnight at 37° C. 10^12 cfu of phages were incubated for one hour at 37° C. in pre-warmed Incubation Medium (DMEM supplemented with 0.1% BSA) in Laminin-coated plastic surfaces (setting for adhering NSCs) or plain plastic surfaces (setting for NSCs in suspension). Then incubation Medium and a total volume of five washes of Washing Buffer (DPBS supplemented with 1% BSA and 0.05% Tween-20) were collected and eluted phages were amplified as described in the standard protocol of New England Biolabs.
(§4) 10^12 cfu of the negatively selected phage library were diluted in 10 ml Incubation Medium and pipetted onto the adhering NSCs or NSCs in suspension.
(§5) After 1 hour of incubation at 37° C. cells were washed five times with pre-warmed Washing Buffer, cell membrane bound phages (MP) and internalized clones (IP) were recovered from independent duplicates of differentiating progenies by eluting and/or lysing the cells respectively. The cell surface was stripped by a 5 minutes incubation of 5 ml of Glycine Buffer (0.2 M Glycine-HCl supplemented with 1 mg/ml BSA (pH 2.2)) at RT. Eluted Phages were neutralized with 5 ml of 1 M Tris-HCl buffer (pH 8) and amplified.
(§6) Cells were then lysed with 9 ml of Lysing Buffer (0.1% TEA in PBS) for 5 minutes at RT. Internalized phages were neutralized with 1 ml of 1 M Tris-HCl buffer.
(§7) Neutralized phages were titered by infection of Escherichia coli to monitor the selection. Internalized and eluted phages were amplified separately for another round of selection. Three rounds of positive selection were performed. At round number two and three the biopannings of internalized and eluted phages were performed in different cell cultures (but with identical culture conditions) by collecting the phages of interest (i.e. internalized phages from libraries of internalized phages) and discarding the leftovers.
(§8) After the third round of biopanning, phage clones were randomly picked out from the titer plates and sequenced. Thirty phage plaques per each set of phages were randomly picked for sequencing. A small number of clones wasn't successfully sequenced. […] In the case of panning against NSC in suspension the highest consensus was for KLPGWSG (SEQ ID NO: 10) (47.36 for MP), GETRAPL (SEQ ID NO: 12) (14.28% for IP and 10.52% for MP) and HAIYPRH (SEQ ID NO: 11) (28.57% for IP and 5.26% for MP).

[2] = test system: murine NSCs; test: Immunofluorescence of differentiated NSC progeny on SAP scaffolds, murine; type: cell-based
Method: (§9) In vitro tests were performed as previously described (8), in order to assess whether the biomaterials (assembled hydrogels) obtained with the SAPs of the present invention influenced NSCs adhesion, survival and/or differentiation. SAPeptides (30 μl for each well at a concentration of 10 mg/ml) were assembled into 96 multiwells two hours before cell. Cells (at a concentration of 2×10^4 cells/cm^2) were seeded on the top-surface of each assembled scaffold. Initially, cells were cultured with basal medium supplemented with βFGF (10 ng/ml), added to […]. At 3 days in vitro (DIV), βFGF medium was replaced with Leukemia Inhibitory Factor (LIF, Chemicon) (20 ng/ml) and Brain Derived Neurotrophic Factor (BDNF, Peprotech) (20 ng/ml). Fresh medium was added every three days. For both viability and differentiation assays positive and negative controls consisted of Cultrex-BME® substrate (R&D systems) (1:100 dilution in basal medium) and untreated bottom well surfaces respectively. Cell viability was quantified via CellTiter 96® Aqueous Proliferation Assay (Promega) at 7 DIV as recommended in the Promega protocol. After calibrating the linear response between the cell number and absorbance values, proliferated cell populations were quantified (n=5) by using a Vmax microplate reader (Molecular Devices) at 490 nm wavelength. Values, reported as means±standard error of the mean, were blanked to their respective controls consisting of same substrates and cell culture media without cells.
(§10) Immunofluorescence tests were performed for assaying the phenotypes of the differentiated human and murine NSC progenies. In the case of KLP and Ac-KLP just murine NSC have been used. Ac-KLP and KLP scaffolds were prepared at different concentrations in order to display three different stiffness values (viz. 100, 500 and 1000 Pa). This was done to assess the influence of scaffold concentration (and consequently its stiffness) over NSC differentiation. All the other peptides were tested at 1% v/w concentration instead. The following antibodies were used: rabbit polyclonal against GFAP (1:500, DakoCytomation) for astrocytes, mouse monoclonal against βIII-Tubulin (1:500, Covance) for neurons, mouse monoclonal against GalC (1:200, Chemicon) and O4 (1:200, Chemicon) for oligodendrocyes. Secondary Abs were Goat anti Mouse Alexa 488 (1:1000, Molecular Probes), Goat anti Mouse Cy3 (1:1000, Jackson Immunoresearch), Goat anti Rabbit Cy3 (1:1000, Jackson Immunoresearch). Cell nuclei were counterstained with DAPI (Molecular Probes). Quantitative analyses were performed by counting 100-300 cells for each of 9 randomly chosen fields over a total of 3 independent experiments. Phase contrast and fluorescence images of the adhering cells were acquired via Zeiss microscopes Axioplan 2 and ApoTome System at one week after seeding.

[3] = test system: human NSCs; test: Imaging and cell proliferation assay (CellTiter 96 MTS) on assembled hydrogels, human NSCs; type: cell-based; conditions: 7 DIV; for cell viability / proliferated cell population (MTS): scaffolds 10 mg/ml, vs control, P<0.03
Method: as §9

[4] = test system: human NSCs; test: Immunofluorescence of differentiated NSC progeny on SAP scaffolds, human; type: cell-based; conditions: 1% scaffold, compared to Cultrex positive control
Method: as §9
as §10, with “Cell nuclei were counterstained with DAPI (Molecular Probes).” left out

[5] = test system: murine NSCs; test: Imaging and cell proliferation assay (CellTiter 96 MTS) on assembled hydrogels, murine NSCs; type: cell-based; conditions: 7 DIV; for cell viability / proliferated cell population (MTS): scaffolds 10 mg/ml, vs control, P<0.005
Method: as §9

[6] = test system: murine NSCs in adhesion (Laminin coated dishes); test: Phage biopanning (Ph.D.-7 library) against adhering NSCs; type: binding; conditions: for Frequency, eluted phage clones / Frequency, internalized phage clones: clones sequenced after three rounds of biopanning; for Frequency, eluted phage clones / %, eluted phage clones: cell membrane bound phages (MP); for %, eluted phage clones / %, internalized phage clones: consensus after three rounds of biopanning; for %, internalized phage clones / Frequency, internalized phage clones: internalized clones (IP)
Method: as §1
NSCs, three million per plate, were seeded over Laminin coated 10 cm Petri dishes (Falcon). After an overnight incubation in 10 ml of βFGF supplemented (10 ng/ml) neural basal media, cells were washed with pre-warmed Incubation Medium.
as §2, §3, §4, §5, §6, §7, §8

[7] = 1% scaffold, compared to Cultrex positive control

In the case of “ALTPWAF (Prepared by synthesis) [heptapeptide domain found by phage biopanning against NSCs]”, the “%, eluted phage clones” value [1] is reported as 10.52% and the “Frequency, eluted phage clones” value [1] is reported as 2.

For “Ac-FAQRVPPGGGLDLKLDLKLDLK-CONH2 (Ac-FAQRVPPGGGLDLKLDLKLDLK-NH2)”, the “number of neurons (βIII-Tubulin) obtained” value [2, 7] was “significantly higher”, the “number of oligodendrocytes (GalC/O4) obtained” value [2, 7] was “significantly higher” and the “cell morphology, adhesion and spreading on assembled hydrogels” value (“cell morphology, adhesion and spreading” below) [3] was “spread and branched cells”. The “cell viability / proliferated cell population (MTS)” value [3] was “cell population was bigger”, the “number of neurons (βIII-Tubulin) obtained” value [4] was “significantly higher” and the “number of oligodendrocytes (GalC/O4) obtained” value [4] was “significantly higher”. For the same substance, the “cell morphology, adhesion and spreading” value [5] was “spread and branched cells” and the “cell viability / proliferated cell population (MTS)” value [5] was “cell population was bigger”.

“FAQRVPP (Prepared by synthesis) [heptapeptide domain found by phage biopanning against NSCs]” was tested, and the “Frequency, eluted phage clones” value [6] was 15, the “%, eluted phage clones” value [6] was 62.5% and the “%, internalized phage clones” value [6] was 53.5%.

In the case of “GETRAPL (Prepared by synthesis) [heptapeptide domain found by phage biopanning against NSCs]”, the “%, internalized phage clones” value [1] is reported as 14.28%, the “Frequency, internalized phage clones” value [1] is reported as 2 and the “%, eluted phage clones” value [1] is reported as 10.52%. For the same substance, the “Frequency, eluted phage clones” value [1] was 2.

In the case of “GKPMPPM (Prepared by synthesis) [heptapeptide domain found by phage biopanning against NSCs]”, the “%, eluted phage clones” value [1] is reported as 10.52% and the “Frequency, eluted phage clones” value [1] is reported as 2.

For “HAIYPRH (Prepared by synthesis) [heptapeptide domain found by phage biopanning against NSCs]”, the “%, internalized phage clones” value [1] was 28.57%, the “Frequency, internalized phage clones” value [1] was 4 and the “%, eluted phage clones” value [1] was 5.26%. For the same substance, the “Frequency, eluted phage clones” value [1] was 1.

With “KLPGWSG (Prepared by synthesis) [heptapeptide domain found by phage biopanning against NSCs]” the “%, eluted phage clones” value [1] was 47.36% and the “Frequency, eluted phage clones” value [1] was 9.

“LQAIPRN (Prepared by synthesis) [heptapeptide domain found by phage biopanning against NSCs]” was tested, and the “Frequency, internalized phage clones” value [6] was 1 and the “%, internalized phage clones” value [6] was 3.5%.

LTTGSGS was tested, and the “Frequency, eluted phage clones” value [6] was 1 and the “%, eluted phage clones” value [6] was 4.2%.

For “NH2-KLPGWSGGGGLDLKLDLKLDLK-CONH2 (H-KLPGWSGGGGLDLKLDLKLDLK-NH2)”, the “differentiated neurons (βIIITubulin positive cells) in correspondence of stiffness reductions” value ([2]; scaffold stiffness 100, 500 and 1000 Pa) was “significant increments” and the “cell morphology, adhesion and spreading” value [5] was “fostered NSCs adhesion and spreading similarly to FAQ”.

For “NH2-QHLPRDHGGGLDLKLDLKLDLK-CONH2 (H-QHLPRDHGGGLDLKLDLKLDLK-NH2)”, the “cell viability / proliferated cell population (MTS)” value [3] was “significantly fostered cell viability; also recorded: significantly favored” and the “cell viability / proliferated cell population (MTS)” value [5] was “significantly fostered cell viability; also recorded: significantly favored”.

In the case of “QHLPRDH (Prepared by synthesis) [heptapeptide domain found by phage biopanning against NSCs]”, the “Frequency, eluted phage clones” value [6] is reported as 2, the “Frequency, internalized phage clones” value [6] is reported as 4 and the “%, eluted phage clones” value [6] is reported as 8.3%. The “%, internalized phage clones” value [6] was 14.2%.

In the case of “SASHWQI (Prepared by synthesis) [heptapeptide domain found by phage biopanning against NSCs]”, the “Frequency, internalized phage clones” value [6] is reported as 1 and the “%, internalized phage clones” value [6] is reported as 3.5%.

“SILPYPY (Prepared by synthesis) [heptapeptide domain found by phage biopanning against NSCs]” was tested, and the “%, internalized phage clones” value [1] was 14.28% and the “Frequency, internalized phage clones” value [1] was 2.

With “SLPKLPP (Prepared by synthesis) [heptapeptide domain found by phage biopanning against NSCs]” the “Frequency, internalized phage clones” value [6] was 1 and the “%, internalized phage clones” value [6] was 3.5%.

SSELVTH was tested, and the “Frequency, eluted phage clones” value [6] was 1 and the “%, eluted phage clones” value [6] was 4.2%.

In the case of “SSLSVND (Prepared by synthesis) [heptapeptide domain found by phage biopanning against NSCs]”, the “Frequency, eluted phage clones” value [6] is reported as 1, the “Frequency, internalized phage clones” value [6] is reported as 3 and the “%, eluted phage clones” value [6] is reported as 4.2%. The “%, internalized phage clones” value [6] was 10.7%.

In the case of TAVNSDA, the “Frequency, eluted phage clones” value [6] is reported as 1 and the “%, eluted phage clones” value [6] is reported as 4.2%.

With “TPLSSHS (Prepared by synthesis) [heptapeptide domain found by phage biopanning against NSCs]” the “Frequency, internalized phage clones” value [6] was 1 and the “%, internalized phage clones” value [6] was 3.5%.

For TPPFAAW, the “Frequency, eluted phage clones” value [6] was 1 and the “%, eluted phage clones” value [6] was 4.2%.

In the case of TTTPTTP, the “Frequency, eluted phage clones” value [6] is reported as 1 and the “%, eluted phage clones” value [6] is reported as 4.2%.

For “YIIPMHD (Prepared by synthesis) [heptapeptide domain found by phage biopanning against NSCs]”, the “Frequency, eluted phage clones” value [6] was 1, the “Frequency, internalized phage clones” value [6] was 1 and the “%, eluted phage clones” value [6] was 4.2%. For the same substance, the “%, internalized phage clones” value [6] was 3.5%.

For “YRMPIWP (Prepared by synthesis) [heptapeptide domain found by phage biopanning against NSCs]”, the “Frequency, internalized phage clones” value [6] was 1 and the “%, internalized phage clones” value [6] was 3.5%.
